The values below come from patent US8372847B2, “Pyrazinone modulator of corticotropin-releasing factor receptor activity” (Bristol-Myers Squibb Company, priority 2008, dated 2013).

In one test the target is T1, CRF1 receptor (Rattus norvegicus, UniProt P35353).
T1 construct: rat frontal cortex membrane as the receptor source; from tissue; host or cells: rat frontal cortex
T1 sequence (P35353 24-415): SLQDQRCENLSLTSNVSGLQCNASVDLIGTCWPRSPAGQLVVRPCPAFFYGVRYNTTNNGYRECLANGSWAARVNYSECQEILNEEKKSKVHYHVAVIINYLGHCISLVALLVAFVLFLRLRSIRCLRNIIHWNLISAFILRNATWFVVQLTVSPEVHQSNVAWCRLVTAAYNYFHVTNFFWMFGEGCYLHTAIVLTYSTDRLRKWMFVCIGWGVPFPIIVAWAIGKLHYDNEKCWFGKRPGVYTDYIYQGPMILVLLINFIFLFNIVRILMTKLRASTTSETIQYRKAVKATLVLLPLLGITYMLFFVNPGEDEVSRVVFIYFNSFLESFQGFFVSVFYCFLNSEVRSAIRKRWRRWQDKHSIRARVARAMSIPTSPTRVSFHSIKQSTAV
Briefly: CRF1 binding assay, 125I-o-CRF competition, rat frontal cortex membrane. As to conditions: n=10; for Hill Slope: 125I-o-CRF binding, rat frontal cortex membrane; for IC50: 5 point and 10 point competition assays, read-out: IC50, inhibition of 125I-o-CRF binding to rat frontal cortex membrane. The procedure:
CRF1 Binding Assay. Frozen rat frontal cortex was thawed rapidly in assay buffer containing 50 mM Hepes (pH 7.0 at 23° C.), 10 mM MgCl2, 2 mM EGTA, 1 μg/ml aprotinin, 1 μg/ml leupeptin, 1 μg/ml pepstatin A, 0.005% Triton X-100, 10 U/ml bacitracin and 0.1% ovalbumin and homogenized. The suspension was centrifuged at 32000×g for 30 minutes. The resulting supernatant was discarded and the pellet resuspended by homogenization in assay buffer and centrifuged again. The supernatant was discarded and the pellet resuspended by homogenization in assay buffer and frozen at −70° C. On the day of the experiment aliquots of the homogenate were thawed quickly and 25 μg/well added to 150 pM ^125I-ovine-CRF (^125I-o-CRF) and drugs in a total volume of 100 μl assay buffer. The assay mixture was incubated for 2 hr at 21° C. Bound and free radioligand were then separated by rapid filtration using glass fiber filters (Whatman GF/B, pretreated with 0.3% PEI (polyethylenimine)) on a Brandel Cell Harvester. Filters were then washed multiple times with ice cold wash buffer (PBS w/o Ca^2+ and Mg^2+, 0.01% Triton X-100; pH 7.0 at 23° C.). Non-specific binding was defined using 1 μM DMP696, a CRF1 selective antagonist [Li, Y-W. et al., CNS Drug Reviews 11: 21-52, (2005)]. Filters were then counted in a Wallac Wizard gamma counter. IC50 values were determined in a five point (five drug concentrations) or ten point (ten drug concentrations) competition assay using non-linear regression by Microsoft Excel-fit.
Binding Results. The primary screen to determine binding potency (IC50 value) of (S)-4-(1-cyclopropyl-2-methoxyethyl)-6-(6-(difluoromethoxy)-2,5-dimethylpyridin-3-ylamino)-5-oxo-4,5-dihydropyrazine-2-carbonitrile at the CRF1 receptor was a competition binding experiment utilizing ^125I-o-CRF as the labeled peptide ligand and rat frontal cortex membrane as the receptor source. […] (S)-4-(1-Cyclopropyl-2-methoxyethyl)-6-(6-(difluoromethoxy)-2,5-dimethylpyridin-3-ylamino)-5-oxo-4,5-dihydropyrazine-2-carbonitrile also bound with high affinity to the native CRF1 receptors present on the human retinoblastoma cell line Y79.

In another test the test system is Male Sprague-Dawley rats. Particulars: previous CRF1 antagonists, literature (McElroy 2002; Lelas 2004); cited from earlier work.
In another test the target is T2, CRF2 receptor (Sus scrofa, UniProt B8Q4Z9).
T2 construct: the CRF2 receptors endogenously expressed on the porcine choroid plexus membrane; from tissue; host or cells: porcine choroid plexus
T2 sequence (B8Q4Z9 1-411): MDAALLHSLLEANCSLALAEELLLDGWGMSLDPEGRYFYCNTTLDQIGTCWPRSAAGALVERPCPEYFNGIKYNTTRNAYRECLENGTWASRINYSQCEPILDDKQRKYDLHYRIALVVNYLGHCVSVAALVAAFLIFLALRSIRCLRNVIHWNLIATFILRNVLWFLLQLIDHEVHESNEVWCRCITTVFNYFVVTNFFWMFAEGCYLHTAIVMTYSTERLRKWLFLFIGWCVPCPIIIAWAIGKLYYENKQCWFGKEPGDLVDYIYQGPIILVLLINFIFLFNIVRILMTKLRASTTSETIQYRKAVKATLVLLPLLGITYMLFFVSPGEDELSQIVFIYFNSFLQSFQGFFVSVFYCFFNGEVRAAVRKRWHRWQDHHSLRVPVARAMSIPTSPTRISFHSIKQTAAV
Briefly: CRF2 binding assay, 125I-sauvagine competition, porcine choroid plexus membrane. As to conditions: n=3; read-out: IC50 at CRF2 receptors of porcine choroid plexus membrane. The procedure: CRF2 Binding Assay. Frozen porcine choroid plexus was thawed rapidly in assay buffer containing 50 mM Hopes (pH 7.0 at 23° C.), 10 mM MgCl2, 2 mM EGTA, 1 μg/ml aprotinin, 1 μg/ml leupeptin, 1 μg/ml pepstatin A, 0.005% Triton X-100, 10 U/ml bacitracin and 0.1% ovalbumin and homogenized. The suspension was centrifuged at 32000×g for 30 minutes. The resulting supernatant was discarded and the pellet resuspended by homogenization in assay buffer and centrifuged again. The supernatant was discarded and the pellet resuspended by homogenization in assay buffer and frozen at −70° C. On the day of the experiment aliquots of the homogenate were thawed quickly and 10 μg/well added to 100 pM ^125I-sauvagine and drugs in a total volume of 100 μl assay buffer. The assay mixture was incubated for 2 hr at 21° C. Bound and free radioligand were then separated by rapid filtration using glass fiber filters (Whatman GF/B, pretreated with 0.3% PEI) on a Brandel Cell Harvester. Filters were then washed multiple times with ice cold wash buffer (PBS w/o Ca^2+ and Mg^2+, 0.01% Triton X-100 (pH 7.0 at 23° C.)). Non-specific binding was defined using 1 μM α-helical CRF (9-41). Filters were then counted in a Wallac Wizard gamma counter. IC50 values were determined in a five point (five drug concentrations) competition assay using non-linear regression by Microsoft Excel-fit.
Binding Results. […]

Bounds are passed on as bounds.

The IC50 is the concentration that gives 50% inhibition. For the compound `COCC(COC)Nc1nc(C)nc2c(-c3ccc(Cl)cc3Cl)c(C)nn12` [DMP696], on CRF1 receptor, the “Hill Slope” value was 1.00±0.02 and the IC50 was found to be 1.39 ± 0.09 nM. In the test on Male Sprague-Dawley rats, the “effectiveness in the situational anxiety model” value is “effective”.

On to `COC[C@H](C1CC1)n1cc(C#N)nc(Nc2cc(C)c(OC(F)F)nc2C)c1=O` [(S)-4-(1-cyclopropyl-2-methoxyethyl)-6-(6-(difluoromethoxy)-2,5-dimethylpyridin-3-ylamino)-5-oxo-4,5-dihydropyrazine-2-carbonitrile], for which, at CRF1 receptor, the “Hill Slope” value was 0.94±0.03 and the half-maximal inhibitory concentration (IC50) worked out at 0.86 ± 0.04 nM. Besides, the IC50 at CRF2 receptor was greater than 10000 nM.
